The text below walks through data of publication PMC6696147, “Broad-Spectrum Antiviral Natural Products from the Marine-Derived Penicillium sp. IMB17-046” (Molecules, 2019).

Series [1] in a line: in vitro. To be noted: human.
In another series the test system is HIV-1. The series can be described thus: microbe, parasite or virus in culture. Type of series: cell-based. To be noted: Human immunodeficiency virus 1, SUP-T1, 48 h, read-out: HIV-1 IC50.
Series [2] is described as follows: in vitro. As to conditions: human. The source holds these as a separate data set.
Series [3] relates to wild-type and multi-drug resistant HIV-1. Also on record: method as in doi:10.1007/s11426-018-9283-3. As to conditions: cited from earlier work.
In a further series the test system is Klebsiella pneumoniae. The series can be described thus: Antibacterial assay, broth micro-dilution MIC, K. pneumoniae. In kind it is cell-based. To be noted: read-out: MIC against Klebsiella pneumoniae. As to the method: (§1) The antibacterial activities against H. pylori, S. aureus, B. subtilis, P. aeruginosa, and K. pneumonia were assayed by examining the MIC using the broth micro-dilution method as previously described.
For orientation: In broth dilution the organism is exposed to a series of concentrations in liquid medium.

The next series concerns Staphylococcus aureus. The series can be described thus: Antibacterial assay, broth micro-dilution MIC, S. aureus. To be noted: read-out: MIC against Staphylococcus aureus. In kind it is cell-based. Here is the method:
as §1

Another series deals with Bacillus subtilis. The series can be described thus: Antibacterial assay, broth micro-dilution MIC, B. subtilis. To be noted: read-out: MIC against Bacillus subtilis. In kind it is cell-based. As to the method:
as §1

The subject of another series is Pseudomonas aeruginosa. The series can be described thus: Antibacterial assay, broth micro-dilution MIC, P. aeruginosa. In kind it is cell-based. To be noted: read-out: MIC against Pseudomonas aeruginosa. Here is the method:
as §1

The next series relates to Helicobacter pylori. The series can be described thus: Antibacterial assay, broth micro-dilution MIC, H. pylori. In kind it is cell-based. To be noted: for MIC: Helicobacter pylori; for H. pylori MIC, range over strains: clinically isolated H. pylori, strains G27 and 159 together. Here is the method:
as §1

Series [4] can be described thus: Cytotoxicity assay (MTT), uninfected Huh7.5 cells. Type of series: cell-based. As to conditions: human, read-out: HCV CC50. As to the method: Cytotoxicity of compounds were assayed for the uninfected 293T-Gluc, SupT1, and Huh7.5 cells. 293T-Gluc and Huh7.5 cells were cultured in Dulbecco’s modified Eagle’s medium supplemented with 10% fetal bovine serum (FBS, Invitrogen). SupT1 cells were cultured in RPMI1640 medium supplemented with 10% FBS. Various concentrations of test compounds (1 μL each well) were added to the 293T-Gluc and SupT1 cells (1 × 10^5 cells/well) in 96-well plates. After incubation at 37 °C for 48 h, 10 μL of CCK-8 reagent was added to the cells and they were incubated for another 4 h. Then, the absorbance of each well was recorded at 450 nm. A cytotoxicity assay for Huh7.5 cells was carried out using the MTT method as described previously.

A further series has as its system HCV. The series can be described thus: Anti-HCV assay. To be noted: Hepatitis C virus. Type of series: cell-based. Here is the method:
Anti-HCV assays were carried out as described previously.

The mark [5] stands for this setting: drug-resistant strain 159, read-out: H. pylori MIC, 159.
Setting [6] is: drug-sensitive strain G27, read-out: H. pylori MIC, G27.

Values after ≈ are worked out from the molar mass of the structure shown. Like-named read-outs stand apart in the source and are kept apart here.

Broadly, the IC50 is the concentration that gives 50% inhibition. A word on the MIC: it is the smallest concentration in the dilution series that meets the test's criterion for growth inhibition.

`NC(=O)c1ncn([C@@H]2O[C@H](CO)[C@@H](O)[C@H]2O)n1` [Ribavirin, reference compound] displayed a CC50 in “in vitro [1]” greater than 100 µM.
For `C=C(CC[C@@H](C)[C@H]1CC[C@H]2C3=C(CC[C@]12C)[C@@]1(C)CC[C@H](O)CC1CC3=O)C(C)C` (stereo partly drawn) [Compound 7, 3β-hydroxyergosta-8,24(28)-dien-7-one], the half-inhibitory concentration (IC50) with HIV-1 was greater than 10 µM. Further, in “in vitro [2]”, the CC50 was greater than 100 µM.
For `CC(C)[C@H](C)CC[C@](C)(O)[C@H]1C(=O)C[C@H]2[C@@H]3C(=O)C=C4C[C@@H](O)CC[C@]4(C)[C@H]3CC[C@@]21C` [amotsterol D, (20S,24R)-3β,20-dihydroxyergostan-5(6)-en-7,16-dione], in series [3], the “effectiveness against HIV-1” value is “low micromolar range”.
As for `CC(C)[C@@H](C)/C=C/[C@@H](C)[C@H]1CC[C@H]2C3=C[C@@H](O)[C@@]4(O)C[C@@H](O)CC[C@]4(C)[C@H]3CC[C@]12C` [Compound 8, (22E,24R)-24-methyl-5α-cholesta-7,22-dien-3β,5,6β-triol], in the series with HIV-1, the IC50 is 6.2 ± 0.2 µM.
For `COc1cc(=O)oc(C=CC=CC=CC(C)=CC2(C)OC(C)C(C)(O)C2O)c1C` (single isomer, unassigned; (+)) [Compound 2, (+)-neocitreoviridin], the MIC in the series on Klebsiella pneumoniae was greater than 128 µg/mL; in the series with Staphylococcus aureus, greater than 128 µg/mL; with Bacillus subtilis it was greater than 128 µg/mL; in the series on Pseudomonas aeruginosa it was greater than 128 µg/mL; in the series with Helicobacter pylori (setting [5]) it was 1 µg/mL (≈ 2.48 µM); in the series with Helicobacter pylori (setting [6]), 4 µg/mL (≈ 9.94 µM). In addition, the IC50 in the series on HIV-1 is greater than 10 µM. The compound also yielded a CC50 in the series “in vitro [2]” greater than 100 µM. For the same compound, in the series with Helicobacter pylori, the “H. pylori MIC, range over strains” value is 1 to 16 µg/mL.
In the case of `O=C1Nc2ccc(Cl)cc2[C@@](C#CC2CC2)(C(F)(F)F)O1` [Efavirenz, reference compound], the CC50 in the series “in vitro [2]” was greater than 100 µM.
Consider `Cc1ncc([N+](=O)[O-])n1CCO` [Metronidazole, reference compound], for which the MIC was determined as 16 µg/mL (≈ 93.5 µM) in the series with Helicobacter pylori (setting [5]) and 1 µg/mL (≈ 5.84 µM) in the series on Helicobacter pylori (setting [6]).
In the case of `CC[C@H](C)c1nc(OC)c(Cc2c[nH]c3ccccc23)nc1O` [Compound 1, (S)-6-((1H-indol-3-yl)methyl)-3-(sec-butyl)-5-methoxypyrazin-2-ol], the MIC was greater than 128 µg/mL in the series on Klebsiella pneumoniae; greater than 128 µg/mL in the series on Staphylococcus aureus; greater than 128 µg/mL in the series with Bacillus subtilis; greater than 128 µg/mL in the series with Pseudomonas aeruginosa; 16 µg/mL (≈ 51.4 µM) in the series with Helicobacter pylori (setting [5]); 4 µg/mL (≈ 12.8 µM) in the series with Helicobacter pylori (setting [6]). In addition, the IC50 was determined as 4.6 ± 0.3 µM with HIV-1 and 7.7 ± 0.2 µM in the series on HCV. The CC50 in series [4] came out at 116 ± 4.9 µM. Moreover, in the series on Helicobacter pylori, the “H. pylori MIC, range over strains” value was 1 to 16 µg/mL.
Regarding `CCC[C@H](NC(=O)[C@@H]1[C@H]2CCC[C@H]2CN1C(=O)[C@@H](NC(=O)[C@@H](NC(=O)c1cnccn1)C1CCCCC1)C(C)(C)C)C(=O)C(=O)NC1CC1` [VX-950, reference compound], in series [4], the CC50 was 25.8 ± 3.4 µM. Moreover, the IC50 in the series on HCV amounted to 0.05 ± 0.03 µM.
Consider `C=C(CC[C@@H](C)[C@H]1CC=C2C3=C(CC[C@@]21C)[C@@]1(C)CC[C@H](O)CC1CC3=O)C(C)C` (stereo partly drawn) [Compound 3, 3β-hydroxyergosta-8,14,24(28)-trien-7-one], for which, in the series with HIV-1, the IC50 stood at 3.5 ± 0.8 µM.
